According to publication PMC4839297, “HTS-Driven Discovery of New Chemotypes with West Nile Virus Inhibitory Activity” (Molecules, 2010):
Where two headings read alike, the source gives them in different places.

How the values were obtained:
[1] = test system: WNV (NY-99 strain) infection of Vero E6 cells; assay: Single dose primary HTS, CPE based (CellTiter-Glo), 384-well; assay type: cell-based, West Nile virus
[2] = Cytotoxicity in dose-response format (CellTiter-Glo); assay type: cell-based; details: African green monkey, Vero E6 cells (uninfected)
Method: (§1) To confirm the activity and to test the cytotoxicity, the top 110 inhibitory compounds were evaluated in a dose response assay using the identical screen.
Cytotoxicity and antiviral efficacy were performed in a dose-response format in parallel. Compounds were serially diluted in complete media (MEM-E) with a 0.5% DMSO final concentration and adding 5 μL to cell plates, identical to the stacked plate method. […] Virus (0.04 MOI) or media was added for antiviral effect or cytotoxicity respectively. The plates were incubated 96 h in a 5% CO2 incubator at 37 °C. Cell viability was measured as stated above. The serially diluted compounds were also used for time of addition studies adding to the infected cells in 384-well plates at -1, 4, 8 and18 h post-infection with WNV (0.02 MOI). The plates were then developed as above 96 h after infection. The EC50 value was calculated for each time of addition point.
(§2) The Z′ value was employed to evaluate the assay’s robustness and was calculated from 1-(3×standard deviation of cell control (σc) + 3* standard deviation of the virus control (σv)/ [mean cell control signal (μc) minus mean virus control signal (μv)]). The signal/background (S/B) was calculated from the mean cell control signal (μc) divided by the mean virus control signal (μv). The signal/noise (S/N) was calculated from mean cell control signal (μc) minus mean virus control signal (μv) divided by the (standard deviation of the cell control signal (σc)^2 […] the standard deviation of the virus control signal (σv)^2)^1/2 [24]. The effective concentration at which the drug inhibited cell death at 50% in the presence of virus (EC50) and the cytotoxicity of the drug alone at 50% (CC50) were calculated using ActivityBase software (IDBS, Inc, Guildford, UK). CPE inhibition (%) and cell viability were calculated as described in elsewhere. The standard curve analysis function in SigmaPlot™ was used to calculate the inhibitory concentration (IC50 and IC50 values) for the protease and titer reduction assays.

[3] = test system: WNV (NY-99 strain) infection of Vero E6 cells; assay: Time of addition assay in dose response format; assay type: cell-based, West Nile virus; details: for EC50 change pattern (time of addition): Table 2; for EC50 change pattern over the course of infection: Table 3, compound added at -1, 4, 8, 18 h post-infection; for EC50: West Nile virus, Vero C1008, 18 h, read-out: EC50 in time of addition assay
Method: The compounds selected by the primary and dose response screening were re-supplied from the suppliers as a solid form except 4 compounds; SMR000394098, SMR000059052, SMR000027739 and SRI-4578, which were not available at that time (Table 1). Time of addition assays were conducted in a dose response format with the 20 compounds. Serially diluted compounds were added to Vero E6 cells at -1, 4, 8 and 18 h post-infection. Luminescent data was calculated (as above) to obtain EC50 values for each compound at each time point of addition.
The EC50 of MPA was within a range of 2.0~5.0 μM regardless of when it was added.
(§3) Cytotoxicity and antiviral efficacy were performed in a dose-response format in parallel. Compounds were serially diluted in complete media (MEM-E) with a 0.5% DMSO final concentration and adding 5 μL to cell plates, identical to the stacked plate method. A ten point, two-fold dilution series of compound concentrations ranging from 30 μM to 0.059 μM were used in the assay. Virus (0.04 MOI) or media was added for antiviral effect or cytotoxicity respectively. The plates were incubated 96 h in a 5% CO2 incubator at 37 °C. Cell viability was measured as stated above. The serially diluted compounds were also used for time of addition studies adding to the infected cells in 384-well plates at -1, 4, 8 and18 h post-infection with WNV (0.02 MOI). The plates were then developed as above 96 h after infection. The EC50 value was calculated for each time of addition point.

[4] = test system: WNV progeny virus in Vero E6 cells; assay: Titer reduction assay (TCID50 of progeny virus); assay type: cell-based, West Nile virus; parameters: SI50 *: unit not given beside the values; details: for SI50 *: Table 3, footnote to * not given; for EC50 / EC90 / inhibition at 15 µM: West Nile virus; for EC50 / EC90: Vero C1008, 48 h; for EC50: read-out: Dose response in Titer reduction EC50; for EC90: read-out: Dose response in Titer reduction EC90; for inhibition at 15 µM: Vero C1008, read-out: inhibition of progeny virus titer
Method: Finally, we employed a titer reduction assay to confirm the antiviral activity of the seven compounds confirmed in the assays. The titer of the progeny virus produced in the presence of the compounds was measured in TCID50 format. […] The titer reduction assay confirmed the antiviral activity of the hit compounds selected through our pathway (Figure 6).
Vero E6 cells were seeded in a 12-well plate in a volume of 1 mL and incubated overnight at 37 °C and 5% CO2. The next day media was aspirated from the cells and they were infected by adsorption of WNV (0.1 MOI) for one hour in 100 μL media. After aspirating the virus and washing the cells with phosphate buffered saline, media was replenished containing compounds at various concentrations. The plates were incubated for 48 h. Progeny virus titer was measured by TCID50 assay in 384-well plate format with 6 wells per dilution of virus. CellTiter-Glo® reagent was employed to determine a cell death which is a sign of infection. A well with a luminescence signal less than the mean of the non-infected control signal, minus 5 times the standard deviation of the control, was regarded as a positive infection. The TCID50 was calculated with the numbers of positive infection and negative infection by the Reed-Muench method.

WNV NS2b-NS3pro = target: T1, WNV NS2b-NS3pro (West Nile virus, UniProt Q9Q6P4); assay: WNV NS2b-NS3pro FRET based enzymatic assay; assay type: biochemical
T1 construct: A recombinant NS3 protease expressed and purified from E.coli; purchased AnaSpec Inc (CA, USA); host or cells: E. coli
T1 sequence (Q9Q6P4 1506-1683 limits assumed, looked up): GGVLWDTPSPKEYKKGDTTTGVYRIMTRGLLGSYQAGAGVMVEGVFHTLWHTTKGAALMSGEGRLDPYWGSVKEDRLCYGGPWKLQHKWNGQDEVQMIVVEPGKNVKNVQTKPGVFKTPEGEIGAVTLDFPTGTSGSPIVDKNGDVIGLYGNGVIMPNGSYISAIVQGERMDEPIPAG
T1 sequence (Q9Q6P4 1423-1470 partner limits assumed, looked up): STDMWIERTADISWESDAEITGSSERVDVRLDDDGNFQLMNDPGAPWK
From the text: The results from the time of addition assay led us to examine the NS3 protease as a potential target of the hit compounds. NS3 protease is an important enzyme responsible for the maturation of viral proteins at early stage during the replication of virus in the host cells. We tested the compounds for an inhibitory activity on NS3 protease using a FRET based, in vitro, enzymatic assay.
A recombinant NS3 protease expressed and purified from E.coli with the cofactor NS2b (residues 49-96) and a fluorescence resonance energy transfer (FRET) based assay kit were purchased from AnaSpec Inc (CA, USA). We followed an assay protocol published on line at PubChem by University of Pittsburgh Molecular Library Screening Center (http://www.ncbi.nlm.nih.gov/, AID:577). The assay was performed in a 384-well format with 10 ng/well of NS2b-NS3pro enzyme.

[5] = test system: WNV (NY-99 strain) infection of Vero E6 cells; assay: Dose response assay in CPE based screen (antiviral efficacy); assay type: cell-based, West Nile virus
Method: as §1
After reviewing the data from the primary screen, 110 compounds were selected for a dose-response study. The same compound stocks (10 mM in 100% DMSO) were used to select 7 μL of the compounds into a low-volume, 384-well plate. The dose response plates were prepared using a “stacked-plate” format using a 1:2 dilution series for a total of ten concentrations. By using this format, each entire plate represents one of the ten concentrations in the dilution series. A 5 μL aliquot of each of the serial dilution plates was transferred to the assay plates along with an equal volume but separate transfer of controls. With the addition of 20 μL of cells and 5 μL of virus, the final test concentrations for the dose response screen were 30 μM, 15 μM, 7.5 μM, 3.75 μM, 1.875 μM, 0.9375 μM, 0.4688 μM, 0.2344 μM, 0.1172 μM, and 0.0586 μM all at […].
as §3, §2

[6] = Table 3, Vero E6, read-out: Dose response in CPE based CC50
[7] = Table 1, CPE based dose response, Vero E6, WNV 0.04 MOI, 96 h, read-out: EC50
[8] = West Nile virus, Vero C1008, 96 h, Table 1, CPE based dose response, Vero E6, WNV 0.04 MOI, 96 h
[9] = West Nile virus, Vero C1008, read-out: Dose response in CPE based EC50, Table 3, Vero E6, WNV
[10] = Table 1, Vero E6 without virus, 96 h, read-out: CC50

Structure (SMILES)	inhibition at 5 µg/mL ([1]; West Nile virus, Vero C1008, read-out: inhibition on average in primary screen)	protection ([1]; assay optimization, MOI 0.04, 384-well)	CC50 at 96 h [2, 6]	EC50 change pattern (time of addition) [3]	EC50 change pattern over the course of infection [3]	EC50 [3]	SI50 * [4]	EC50 [4]	EC90 [4]	anti-NS2b-NS3pro activity (in words) (WNV NS2b-NS3pro)	SI50 (Selectivity Index 50, ratio of CC50 to EC50) ([5]; Table 1)	EC50 [5, 7]	EC50 [5, 8]	EC50 [5, 9]	CC50 at 96 h [2, 10]	Dose response in Titer reduction EC50 ([4]; Vero E6, WNV 0.1 MOI, 48 h post-infection)	inhibition at 15 µM [4]
COc1c(C)c2c(c(O)c1C/C=C(\C)CCC(=O)O)C(=O)OC2 [MPA, mycophenolic acid, reference compound]	44.6%	30%	> 30 µM	No Change : EC50_1hr ≈ EC50_4hr ≈ EC50_8hr ≈ EC50_18hr	no change	2 to 5 µM	>1000	0.03 µM	0.94 µM								
O=C(O)c1ccccc1Nc1ccccc1 [N-Phenylanthranilic acid, reference compound]										could not detect any significant activity							
Cc1oc(-c2ccccc2Cl)nc1CSCC(=O)N1CCCC1 [SMR000027739]											>3.4	29.6 µM					
CC(=O)OC[C@H]1O[C@@H](n2ncc(=O)[nH]c2=O)[C@H](OC(C)=O)[C@@H]1OC(C)=O [SMR000059052]											>5.0	20 µM					
O=C(O)c1ccccc1Nc1ccc([N+](=O)[O-])cc1 [SMR000171908]			> 30 µM	Increase: EC50_1hr ≈ EC50_4hr ≤ EC50_8hr < EC50_18hr	Increase		>25	1.16 µM	6.73 µM		>3.3		30.4 µM	30.4 µM	> 100 µM		
C[C@@H]1Cc2ccccc2N1S(=O)(=O)c1cccc(C(=O)N2CCN(c3ncccn3)CC2)c1 [SMR000370276]			> 30 µM	Increase: EC50_1hr ≈ EC50_4hr ≤ EC50_8hr < EC50_18hr	Increase		>5		6.07 µM		>5.3		18.9 µM	18.9 µM	> 100 µM	No solution	98.8%
CC(C)C[C@H](NC(=O)c1nc[nH]c1C(=O)N1CCN(C(=O)OC(C)(C)C)CC1)C(=O)OC(C)(C)C [SMR000394098]											>5.1	19.6 µM					
COc1cc(-c2ccc(Nc3ccccc3C(=O)O)c(OC)c2)ccc1Nc1ccccc1C(=O)O [SRI-19093, Redoxal]			> 30 µM		Increase	3.2 to 6.4 µM	>200	0.13 µM	2.14 µM	inhibited viral protease in vitro	>2.4		41 µM	41 µM	> 100 µM		93.7%
COc1cccc2c(=O)n3c(nc12)/C(=C/c1ccc2c(c1)OCO2)CC3 [SRI-22003]			> 30 µM	Increase: EC50_1hr ≈ EC50_4hr ≤ EC50_8hr < EC50_18hr	Increase		>6	4.7 µM	5.13 µM		>8.2		12.2 µM	12.2 µM	> 100 µM		98.8%
